Laboratory results taken from paper PMC9646673, “A Novel, Orally Bioavailable, Small-Molecule Inhibitor of PCSK9 With Significant Cholesterol-Lowering Properties In Vivo” (Journal of Lipid Research, 2022).
Values joined by “and” are separate entries in the source; they are usually repeats but may differ in a detail not shown here. Equal entries are not always repeated.

System: APOE∗3-Leiden.CETP mice
Assay: First efficacy study (28 days): plasma lipids
Type: in vivo, mouse
Excerpt: Animal experiments were approved by the governmental central committee on animal experiments (AVD5010020172064) and TNO’s animal welfare body (TNO-471 and TNO-482). Female APOE∗3-Leiden.CETP transgenic mice (11–16 weeks of age) were bred at the animal facility of TNO-InnoSer (Leiden, The Netherlands). Female animals were used in this study as they are more responsive to dietary cholesterol and fat than males and therefore typically develop atherosclerosis more rapidly than male APOE∗3-Leiden and APOE∗3-Leiden.CETP mice on cholesterol-containing diets ([33], [34]). Although measurements of atherosclerosis were not included as part of the present study, females were used with the prospect in mind that atherosclerosis studies will follow. The mice were housed under standard conditions that included 12 h light-dark cycles and access to a WTD and sterilized tap water ad libitum. Body weight, food intake, and clinical signs of behavior were monitored throughout the studies. […] Time t = 0 (weeks) was designated as the time at which mice were matched into groups after the 3-week run-in period in each efficacy study.
Treatment times were around 8:00 am and 4:00 pm each day. Throughout the in-life phase of the study, body weight and food intake (per cage) were measured at regular predetermined intervals while blood samples were collected every 7 days. The last gavage was administered on day 27. On day 28, the mice were sacrificed by CO2 asphyxiation, EDTA-plasma was obtained via heart puncture, and the liver was weighed and collected. Throughout the study, plasma cholesterol, triglycerides, HDL-C, lipoprotein profiles, PCSK9 expression levels, aspartate transaminase levels (AST), and alanine transaminase levels (ALT) were measured as described below.
In both studies, blood samples were collected at weekly intervals via tail vein sampling after fasting the mice for 4 h. Blood samples were centrifugated (4500 g at 4°C), and the plasma was collected for the following analyses. Total plasma cholesterol levels were determined using a Cholesterol CHOD-PAP kit according to the manufacturer’s instructions. Plasma HDL-C levels were determined by first precipitating apoB-containing lipids using PEG 6000/glycine and then utilizing the Cholesterol CHOD-PAP kit ([35]). Non-HDL-C levels were determined by subtracting HDL-C levels from total cholesterol levels ([32]). Group-pooled lipoprotein profiles were determined by FPLC analysis using an AKTApurifier 10 FPLC system (GE Healthcare, Chicago, IL). Plasma PCSK9 levels were determined using a Mouse PCSK9 Quantikine ELISA kit as per the manufacturer’s protocol. ALT and AST levels of group-pooled samples were measured using the Roche Reflotron Plus System (Mannheim, Germany).

[1] = 30 mg/kg BID PO, day 0 (baseline)
[2] = 50 mg/kg BID PO, day 0 (baseline)
[3] = 30 and 50 mg/kg BID PO, 28 days

Question: Which “Plasma HDL- cholesterol (mean ± SEM)” value [1] does the source give for `Cc1cn(-c2cc(CN3CCC[C@H](N)C3)cc(NC(=O)c3cc(-c4ccccc4)ccn3)c2)cn1` [NYX-PCSK9i] here?
Answer: Its value is 0.9 ± 0.2 mmol/L.

Question: And the “Plasma non-HDL- cholesterol (mean ± SEM)” value [1]?
Answer: Its value is 14.7 ± 1.6 mmol/L.

Question: What about the “Plasma triglycerides (mean ± SD)” value [1] of the same compound?
Answer: Its value is 5.7 ± 2.2 mmol/L.

Question: And the “Plasma triglycerides (mean ± SD)” value (30 mg/kg BID PO, day 7)?
Answer: The value was 7.0 ± 2.0 mmol/L.

Question: And the “Plasma HDL- cholesterol (mean ± SEM)” value (30 mg/kg BID PO, day 14)?
Answer: Its value is 0.4 ± 0.1 mmol/L.

Question: And the “Plasma non-HDL- cholesterol (mean ± SEM)” value (30 mg/kg BID PO, day 14)?
Answer: The value was 13.1 ± 2.2 mmol/L.

Question: What about the “Plasma triglycerides (mean ± SD)” value (30 mg/kg BID PO, day 14) of the same compound?
Answer: The value was 8.9 ± 1.8 mmol/L.

Question: What about the “Plasma triglycerides (mean ± SD)” value (30 mg/kg BID PO, day 21) of the same compound?
Answer: Its value is 6.1 ± 1.5 mmol/L.

Question: What about the “Plasma HDL- cholesterol (mean ± SEM)” value (30 mg/kg BID PO, day 28) of the same compound?
Answer: Its value is 0.8 ± 0.2 mmol/L.

Question: What about the “Plasma non-HDL- cholesterol (mean ± SEM)” value (30 mg/kg BID PO, day 28) of the same compound?
Answer: The value was 10.5 ± 1.4 mmol/L.

Question: And the “Plasma triglycerides (mean ± SD)” value (30 mg/kg BID PO, day 28)?
Answer: Its value is 5.7 ± 1.9 mmol/L.

Question: What about the “Plasma HDL- cholesterol (mean ± SEM)” value [2] of the same compound?
Answer: Its value is 0.8 ± 0.1 mmol/L.

Question: What about the “Plasma non-HDL- cholesterol (mean ± SEM)” value [2] of the same compound?
Answer: Its value is 14.6 ± 2.5 mmol/L.

Question: And the “Plasma triglycerides (mean ± SD)” value [2]?
Answer: The value was 6.1 ± 1.9 mmol/L.

Question: And the “Plasma triglycerides (mean ± SD)” value (50 mg/kg BID PO, day 7)?
Answer: Its value is 5.9 ± 2.0 mmol/L.

Question: And the “Plasma HDL- cholesterol (mean ± SEM)” value (50 mg/kg BID PO, day 14)?
Answer: The value was 0.6 ± 0.2 mmol/L.

Question: And the “Plasma non-HDL- cholesterol (mean ± SEM)” value (50 mg/kg BID PO, day 14)?
Answer: The value was 9.8 ± 2.4 mmol/L.

Question: And the “Plasma triglycerides (mean ± SD)” value (50 mg/kg BID PO, day 14)?
Answer: The value was 5.2 ± 1.7 mmol/L.

Question: What about the “Plasma triglycerides (mean ± SD)” value (50 mg/kg BID PO, day 21) of the same compound?
Answer: Its value is 4.2 ± 1.3 mmol/L.

Question: And the “Plasma HDL- cholesterol (mean ± SEM)” value (50 mg/kg BID PO, day 28)?
Answer: Its value is 0.9 ± 0.2 mmol/L.

Question: What about the “Plasma non-HDL- cholesterol (mean ± SEM)” value (50 mg/kg BID PO, day 28) of the same compound?
Answer: Its value is 6.8 ± 1.5 mmol/L.

Question: And the “Plasma triglycerides (mean ± SD)” value (50 mg/kg BID PO, day 28)?
Answer: Its value is 4.1 ± 1.2 mmol/L.

Question: And the “reduction of total cholesterol in absolute terms” value (50 mg/kg BID PO, day 28)?
Answer: The value was 10.1 mM and 390 mg/dl.

Question: What about the HDL-C levels [3] of the same compound?
Answer: Its HDL-C levels is “no consistent reduction in HDL-C levels”.

Question: What about the “Mean plasma triglyceride levels” value [3] of the same compound?
Answer: The value was “essentially unchanged”.
